Values after ≈ are worked out from the molar mass of the structure shown. Where a SMILES comes first, the peptide text is derived from it. The star is where a group is joined. Benzoyl(4-B(OH)2) = O=C(c1ccc(B(O)O)cc1)*; Bz = O=C(c1ccccc1)*

This note sets out measurements from ChEMBL document CHEMBL4118096, “Branched Peptides: Acridine and Boronic Acid Derivatives as Antimicrobial Agents” (ACS Med Chem Lett, 2017).

Format in all cases: functional
Assay [1] relates to Candida albicans. Description: Antifungal activity against Candida albicans measured on day 4 by broth microdilution method. Conditions: 96 h. (In general: In broth dilution the organism is exposed to a series of concentrations in liquid medium.)
Assay [2] concerns Aspergillus niger. The assay can be described thus: Antifungal activity against Aspergillus niger measured on day 4 by broth microdilution method. Conditions: 96 h.
Assay [3] deals with Mycolicibacterium smegmatis. Description: Antimicrobial activity against Mycobacterium smegmatis ATCC 607 measured on day 4 by broth microdilution method. Conditions: ATCC 607, 96 h.
Assay [4] deals with Staphylococcus aureus. The assay can be described thus: Antimicrobial activity against Staphylococcus aureus ATCC 6538 measured on day 4 by broth microdilution method. Conditions: ATCC 6538, 96 h.
Assay [5] concerns Escherichia coli. The assay can be described thus: Antimicrobial activity against Escherichia coli C ATCC 13706 measured on day 4 by broth microdilution method. Conditions: C ATCC 13706, 96 h.
For assay [6], the system named is Saccharomyces cerevisiae. The assay can be described thus: Induction of membrane lysis activity in Saccharomyces cerevisiae assessed as maltase release at MIC after 60 mins relative to control.
Assay [7] deals with Candida albicans. The assay can be described thus: Induction of membrane lysis in Candida albicans assessed as maltase release at MIC after 60 mins relative to control.

A word on the MIC: it is the least concentration at which growth counts as inhibited. `CC(C)C[C@H](NC(=O)[C@H](CCCCN)NC(=O)[C@H](CCCCN)NC(=O)[C@H](CCCCN)NC(=O)[C@H](CCCCNC(=O)c1ccccc1)NC(=O)[C@H](CCCCN)NC(=O)[C@H](CCCCN)NC(=O)[C@@H](N)CCCCNC(=O)c1ccccc1)C(=O)N[C@@H](CCCCNC(=O)c1ccc(B(O)O)cc1)C(=O)N[C@@H](Cc1ccc(O)cc1)C(=O)O` (H-K(Bz)KKK(Bz)KKKLK(Benzoyl(4-B(OH)2))Y-OH): the MIC came to 8 µg/mL (≈ 4.77 µM) in assay [1]; 125 µg/mL (≈ 74.6 µM) in assay [2]; 62.5 µg/mL (≈ 37.3 µM) in assay [3]; 62.5 µg/mL (≈ 37.3 µM) in assay [4]; 8 µg/mL (≈ 4.77 µM) in assay [5].

`CC(C)C[C@H](NC(=O)[C@H](CC(C)C)NC(=O)[C@H](CCCCN)NC(=O)[C@H](CCCCNC(=O)c1ccc(B(O)O)cc1)NC(=O)[C@H](CCCCN)NC(=O)[C@H](CCCCN)NC(=O)[C@H](CCCCNC(=O)c1ccc(B(O)O)cc1)NC(=O)[C@@H](N)CCCCN)C(=O)N[C@@H](CCCCN)C(=O)N[C@@H](Cc1ccc(O)cc1)C(=O)O` (H-KK(Benzoyl(4-B(OH)2))KKK(Benzoyl(4-B(OH)2))KLLKY-OH): the minimal inhibitory concentration (MIC) came to 16 µg/mL (≈ 10 µM) in assay [1]; 125 µg/mL (≈ 78.1 µM) in assay [2]; 62.5 µg/mL (≈ 39 µM) in assay [3]; 62.5 µg/mL (≈ 39 µM) in assay [4]; 16 µg/mL (≈ 10 µM) in assay [5].

Turning to `CC(C)C[C@H](NC(=O)[C@H](CCCCN)NC(=O)[C@H](CCCCN)NC(=O)[C@H](CCCCNC(=O)c1ccccc1)NC(=O)[C@H](CCCCN)NC(=O)[C@H](CCCCN)NC(=O)[C@H](CCCCNC(=O)c1ccccc1)NC(=O)[C@@H](N)CCCCN)C(=O)N[C@@H](CCCCNC(=O)c1ccc(B(O)O)cc1)C(=O)N[C@@H](Cc1ccc(O)cc1)C(=O)O` (H-KK(Bz)KKK(Bz)KKLK(Benzoyl(4-B(OH)2))Y-OH), the MIC in assay [1] was found to be 4 µg/mL (≈ 2.39 µM); in assay [2] it was 125 µg/mL (≈ 74.6 µM); in assay [3], 62.5 µg/mL (≈ 37.3 µM); in assay [4], 32 µg/mL (≈ 19.1 µM); in assay [5], 32 µg/mL (≈ 19.1 µM). The Activity is reported as 0.4% in assay [6] and 18% in assay [7].

On to `CC(C)C[C@H](NC(=O)[C@H](CCCCN)NC(=O)[C@H](CCCCNC(=O)c1ccc(B(O)O)cc1)NC(=O)[C@H](CCCCN)NC(=O)[C@H](CCCCN)NC(=O)[C@H](CCCCNC(=O)c1ccc(B(O)O)cc1)NC(=O)[C@H](CCCCN)NC(=O)[C@@H](N)CCCCN)C(=O)N[C@@H](CCCCNC(=O)c1ccc(B(O)O)cc1)C(=O)N[C@@H](Cc1ccc(O)cc1)C(=O)O` (H-KKK(Benzoyl(4-B(OH)2))KKK(Benzoyl(4-B(OH)2))KLK(Benzoyl(4-B(OH)2))Y-OH), for which the minimum inhibitory concentration (MIC) in assay [1] amounted to 8 µg/mL (≈ 4.54 µM); in assay [2], 125 µg/mL (≈ 70.9 µM); in assay [3], 62.5 µg/mL (≈ 35.4 µM); in assay [4] it was 62.5 µg/mL (≈ 35.4 µM); in assay [5], 16 µg/mL (≈ 9.07 µM).

Take `NCCCC[C@H](NC(=O)[C@H](CCCCNC(=O)c1ccccc1)NC(=O)[C@H](CCCCNC(=O)c1ccccc1)NC(=O)[C@H](CCCCN)NC(=O)[C@H](CCCCN)NC(=O)[C@H](CCCCN)NC(=O)[C@H](CCCCN)NC(=O)[C@H](CCCCN)NC(=O)[C@@H](N)CCCCN)C(=O)N[C@@H](Cc1ccc(O)cc1)C(=O)O` (H-KKKKKKK(Bz)K(Bz)KY-OH): the MIC in assay [1] came to 1 µg/mL (≈ 0.648 µM); in assay [2] it was 250 µg/mL (≈ 162 µM); in assay [3] it was 32 µg/mL (≈ 20.7 µM); in assay [4], 62.5 µg/mL (≈ 40.5 µM); in assay [5], 16 µg/mL (≈ 10.4 µM).

For `CC(C)C[C@H](NC(=O)[C@H](CCCCN)NC(=O)[C@H](CCCCN)NC(=O)[C@H](CCCCN)NC(=O)[C@H](CCCCN)NC(=O)[C@H](CCCCN)NC(=O)[C@@H](N)CCCCN)C(=O)N[C@@H](CCCCNC(=O)c1ccc(B(O)O)cc1)C(=O)N[C@@H](CCCCNC(=O)c1ccc(B(O)O)cc1)C(=O)N[C@@H](Cc1ccc(O)cc1)C(=O)O` (H-KKKKKKLK(Benzoyl(4-B(OH)2))K(Benzoyl(4-B(OH)2))Y-OH), the MIC in assay [1] stood at 4 µg/mL (≈ 2.48 µM); in assay [2], 62.5 µg/mL (≈ 38.7 µM); in assay [3] it was 32 µg/mL (≈ 19.8 µM); in assay [4] it was 32 µg/mL (≈ 19.8 µM); in assay [5] it was 8 µg/mL (≈ 4.95 µM).

In the case of `CC(C)C[C@H](NC(=O)[C@H](CCCCNC(=O)c1ccc(B(O)O)cc1)NC(=O)[C@H](CC(C)C)NC(=O)[C@H](CCCCN)NC(=O)[C@H](CCCCN)NC(=O)[C@H](CCCCN)NC(=O)[C@H](CCCCN)NC(=O)[C@H](CCCCN)NC(=O)[C@@H](N)CCCCN)C(=O)N[C@@H](Cc1ccc(O)cc1)C(=O)O` (H-KKKKKKLK(Benzoyl(4-B(OH)2))LY-OH), the MIC in assay [1] is 4 µg/mL (≈ 2.75 µM); in assay [2] it was 62.5 µg/mL (≈ 43 µM); in assay [3] it was 32 µg/mL (≈ 22 µM); in assay [4] it was 32 µg/mL (≈ 22 µM); in assay [5], 16 µg/mL (≈ 11 µM).

With `CC(C)C[C@H](NC(=O)[C@H](CCCCN)NC(=O)[C@H](CCCCN)NC(=O)[C@H](CC(C)C)NC(=O)[C@H](CCCCN)NC(=O)[C@@H](N)CCCCN)C(=O)N[C@@H](CCCCN)C(=O)N[C@@H](CCCCNC(=O)c1ccc(B(O)O)cc1)C(=O)N[C@@H](CCCCNC(=O)c1ccc(B(O)O)cc1)C(=O)N[C@@H](Cc1ccc(O)cc1)C(=O)O` (H-KKLKKLKK(Benzoyl(4-B(OH)2))K(Benzoyl(4-B(OH)2))Y-OH), the MIC worked out at 8 µg/mL (≈ 5 µM) in assay [1]; 125 µg/mL (≈ 78.1 µM) in assay [2]; 62.5 µg/mL (≈ 39 µM) in assay [3]; 62.5 µg/mL (≈ 39 µM) in assay [4]; 16 µg/mL (≈ 10 µM) in assay [5].

For the compound `CC(C)C[C@H](NC(=O)[C@H](CC(C)C)NC(=O)[C@H](CCCCN)NC(=O)[C@H](CCCCN)NC(=O)[C@H](CC(C)C)NC(=O)[C@H](CCCCN)NC(=O)[C@@H](N)CCCCN)C(=O)N[C@@H](CCCCN)C(=O)N[C@@H](CCCCNC(=O)c1ccc(B(O)O)cc1)C(=O)N[C@@H](Cc1ccc(O)cc1)C(=O)O` (H-KKLKKLLKK(Benzoyl(4-B(OH)2))Y-OH), the MIC worked out at 4 µg/mL (≈ 2.78 µM) in assay [1]; 125 µg/mL (≈ 86.9 µM) in assay [2]; 32 µg/mL (≈ 22.3 µM) in assay [3]; 62.5 µg/mL (≈ 43.5 µM) in assay [4]; 16 µg/mL (≈ 11.1 µM) in assay [5].

Turning to `CC(C)C[C@H](NC(=O)[C@H](CCCCN)NC(=O)[C@H](CCCCN)NC(=O)[C@H](CC(C)C)NC(=O)[C@@H](N)CCCCN)C(=O)N[C@@H](CCCCN)C(=O)N[C@@H](CCCCN)C(=O)N[C@@H](CCCCN)C(=O)N[C@@H](CCCCNC(=O)c1ccc(B(O)O)cc1)C(=O)N[C@@H](Cc1ccc(O)cc1)C(=O)O` (H-KLKKLKKKK(Benzoyl(4-B(OH)2))Y-OH), the MIC was 2 µg/mL (≈ 1.38 µM) in assay [1]; 125 µg/mL (≈ 86 µM) in assay [2]; 32 µg/mL (≈ 22 µM) in assay [3]; 32 µg/mL (≈ 22 µM) in assay [4]; 16 µg/mL (≈ 11 µM) in assay [5].

As to `CC(C)C[C@H](NC(=O)[C@H](CCCCN)NC(=O)[C@H](CC(C)C)NC(=O)[C@H](CCCCN)NC(=O)[C@H](CCCCN)NC(=O)[C@H](CC(C)C)NC(=O)[C@@H](N)CCCCN)C(=O)N[C@@H](CCCCN)C(=O)N[C@@H](CCCCNC(=O)c1ccc(B(O)O)cc1)C(=O)N[C@@H](Cc1ccc(O)cc1)C(=O)O` (H-KLKKLKLKK(Benzoyl(4-B(OH)2))Y-OH), the MIC in assay [1] was determined as 4 µg/mL (≈ 2.78 µM); in assay [2], 125 µg/mL (≈ 86.9 µM); in assay [3], 32 µg/mL (≈ 22.3 µM); in assay [4], 62.5 µg/mL (≈ 43.5 µM); in assay [5] it was 16 µg/mL (≈ 11.1 µM).

As for `CC(C)C[C@H](NC(=O)[C@H](CC(C)C)NC(=O)[C@H](CCCCN)NC(=O)[C@H](CC(C)C)NC(=O)[C@@H](N)CC(C)C)C(=O)N[C@@H](CCCCN)C(=O)N[C@@H](CCCCN)C(=O)N[C@@H](CCCCNC(=O)c1ccc(B(O)O)cc1)C(=O)N[C@@H](CCCCN)C(=O)N[C@@H](Cc1ccc(O)cc1)C(=O)O` (H-LLKLLKKK(Benzoyl(4-B(OH)2))KY-OH), the MIC came out at 8 µg/mL (≈ 5.62 µM) in assay [1]; 250 µg/mL (≈ 176 µM) in assay [2]; 125 µg/mL (≈ 87.9 µM) in assay [3]; 62.5 µg/mL (≈ 43.9 µM) in assay [4]; 16 µg/mL (≈ 11.2 µM) in assay [5].
